Reference: patent US11028095B2, “Spiro-lactam and bis-spiro-lactam NMDA receptor modulators and uses thereof” (Aptinyx Inc., priority 2016, dated 2021)

Key:
[1] = Microsomal stability (Human); assay type: in vitro ADME; settings: human microsomes
Experimental: (§1) Microsomal stability of disclosed compounds was investigated. The following table indicates the percent of compound remaining after 60 minutes.

[2] = Microsomal stability (Rat); assay type: in vitro ADME; settings: rat microsomes
Experimental: as §1

Plasma stability (Human) = assay type: in vitro ADME
Experimental: (§2) Plasma stability of disclosed compounds was investigated. The following table indicates the percent of compound remaining after 60 minutes.

Plasma stability (Rat) = assay type: in vitro ADME
Experimental: as §2

[3] = biological target: T1, NMDAR2A expressing HEK cell membranes (Homo sapiens, UniProt Q12879); test: NMDAR agonist assay, [3H]MK-801 binding, NMDAR2A; assay type: biochemical; settings: 50 μM glutamate; for EC50: [3H]MK-801 binding, read-out: NMDAR2A: log EC50 (converted)
T1 construct: expressed in transfected cells; host or cells: HEK cells (membrane extract)
Experimental: (§3) (nonequilibrium conditions).
(§4) The baseline value was determined from the best fit curve of the DPM values modeled using the GraphPad program and the log(agonist) vs. response(three parameters) algorithm was then subtracted from all points in the dataset.

[4] = biological target: T2, NMDAR2B expressing HEK cell membranes (Homo sapiens, UniProt Q13224); test: NMDAR agonist assay, [3H]MK-801 binding, NMDAR2B; assay type: biochemical; settings: 50 μM glutamate; for EC50: [3H]MK-801 binding, read-out: NMDAR2B log EC50 (converted)
T2 construct: expressed in transfected cells; host or cells: HEK cells (membrane extract)
T2 sequence (Q13224 27-1484, other chains not shown): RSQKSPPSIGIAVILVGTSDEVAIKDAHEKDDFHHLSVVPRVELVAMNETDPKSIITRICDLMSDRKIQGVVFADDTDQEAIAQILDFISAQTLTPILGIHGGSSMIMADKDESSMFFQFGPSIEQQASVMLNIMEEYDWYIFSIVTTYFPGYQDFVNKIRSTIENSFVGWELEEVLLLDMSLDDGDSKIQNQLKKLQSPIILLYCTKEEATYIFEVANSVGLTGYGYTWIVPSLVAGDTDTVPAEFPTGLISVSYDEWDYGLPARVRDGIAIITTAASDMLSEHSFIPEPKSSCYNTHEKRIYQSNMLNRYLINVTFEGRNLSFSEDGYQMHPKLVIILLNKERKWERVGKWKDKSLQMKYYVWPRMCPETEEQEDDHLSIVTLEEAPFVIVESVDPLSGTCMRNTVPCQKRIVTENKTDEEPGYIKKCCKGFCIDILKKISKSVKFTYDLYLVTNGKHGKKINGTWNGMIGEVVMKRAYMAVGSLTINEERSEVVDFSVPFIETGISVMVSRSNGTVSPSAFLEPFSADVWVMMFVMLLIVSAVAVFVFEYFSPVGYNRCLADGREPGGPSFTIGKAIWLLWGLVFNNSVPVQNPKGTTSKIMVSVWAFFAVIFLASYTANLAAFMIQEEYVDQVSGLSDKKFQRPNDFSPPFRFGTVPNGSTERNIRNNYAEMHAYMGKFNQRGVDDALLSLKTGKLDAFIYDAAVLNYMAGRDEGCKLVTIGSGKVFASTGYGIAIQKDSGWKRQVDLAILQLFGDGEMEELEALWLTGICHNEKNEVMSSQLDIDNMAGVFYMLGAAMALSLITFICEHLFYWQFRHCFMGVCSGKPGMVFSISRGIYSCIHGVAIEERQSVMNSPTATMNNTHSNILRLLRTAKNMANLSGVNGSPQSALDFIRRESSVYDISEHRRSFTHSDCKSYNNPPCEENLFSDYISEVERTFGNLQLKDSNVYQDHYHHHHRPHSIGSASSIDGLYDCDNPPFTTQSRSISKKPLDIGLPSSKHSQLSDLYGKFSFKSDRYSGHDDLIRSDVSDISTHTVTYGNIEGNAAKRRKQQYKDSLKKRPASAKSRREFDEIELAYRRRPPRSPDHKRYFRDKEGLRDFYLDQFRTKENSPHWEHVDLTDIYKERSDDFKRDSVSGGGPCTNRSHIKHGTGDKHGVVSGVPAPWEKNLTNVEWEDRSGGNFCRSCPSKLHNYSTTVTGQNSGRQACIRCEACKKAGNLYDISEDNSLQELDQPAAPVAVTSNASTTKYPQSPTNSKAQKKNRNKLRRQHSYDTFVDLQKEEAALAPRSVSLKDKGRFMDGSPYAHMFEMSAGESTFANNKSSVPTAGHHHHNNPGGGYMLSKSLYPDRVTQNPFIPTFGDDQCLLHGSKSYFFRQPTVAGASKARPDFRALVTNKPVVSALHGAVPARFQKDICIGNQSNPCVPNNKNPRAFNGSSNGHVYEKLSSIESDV
Experimental: as §3, §4

[5] = biological target: T3, NMDAR2C expressing HEK cell membranes (Homo sapiens, UniProt Q14957); test: NMDAR agonist assay, [3H]MK-801 binding, NMDAR2C; assay type: biochemical; settings: 50 μM glutamate
T3 construct: expressed in transfected cells; host or cells: HEK cells (membrane extract)
T3 sequence (Q14957 20-1233, other chains not shown): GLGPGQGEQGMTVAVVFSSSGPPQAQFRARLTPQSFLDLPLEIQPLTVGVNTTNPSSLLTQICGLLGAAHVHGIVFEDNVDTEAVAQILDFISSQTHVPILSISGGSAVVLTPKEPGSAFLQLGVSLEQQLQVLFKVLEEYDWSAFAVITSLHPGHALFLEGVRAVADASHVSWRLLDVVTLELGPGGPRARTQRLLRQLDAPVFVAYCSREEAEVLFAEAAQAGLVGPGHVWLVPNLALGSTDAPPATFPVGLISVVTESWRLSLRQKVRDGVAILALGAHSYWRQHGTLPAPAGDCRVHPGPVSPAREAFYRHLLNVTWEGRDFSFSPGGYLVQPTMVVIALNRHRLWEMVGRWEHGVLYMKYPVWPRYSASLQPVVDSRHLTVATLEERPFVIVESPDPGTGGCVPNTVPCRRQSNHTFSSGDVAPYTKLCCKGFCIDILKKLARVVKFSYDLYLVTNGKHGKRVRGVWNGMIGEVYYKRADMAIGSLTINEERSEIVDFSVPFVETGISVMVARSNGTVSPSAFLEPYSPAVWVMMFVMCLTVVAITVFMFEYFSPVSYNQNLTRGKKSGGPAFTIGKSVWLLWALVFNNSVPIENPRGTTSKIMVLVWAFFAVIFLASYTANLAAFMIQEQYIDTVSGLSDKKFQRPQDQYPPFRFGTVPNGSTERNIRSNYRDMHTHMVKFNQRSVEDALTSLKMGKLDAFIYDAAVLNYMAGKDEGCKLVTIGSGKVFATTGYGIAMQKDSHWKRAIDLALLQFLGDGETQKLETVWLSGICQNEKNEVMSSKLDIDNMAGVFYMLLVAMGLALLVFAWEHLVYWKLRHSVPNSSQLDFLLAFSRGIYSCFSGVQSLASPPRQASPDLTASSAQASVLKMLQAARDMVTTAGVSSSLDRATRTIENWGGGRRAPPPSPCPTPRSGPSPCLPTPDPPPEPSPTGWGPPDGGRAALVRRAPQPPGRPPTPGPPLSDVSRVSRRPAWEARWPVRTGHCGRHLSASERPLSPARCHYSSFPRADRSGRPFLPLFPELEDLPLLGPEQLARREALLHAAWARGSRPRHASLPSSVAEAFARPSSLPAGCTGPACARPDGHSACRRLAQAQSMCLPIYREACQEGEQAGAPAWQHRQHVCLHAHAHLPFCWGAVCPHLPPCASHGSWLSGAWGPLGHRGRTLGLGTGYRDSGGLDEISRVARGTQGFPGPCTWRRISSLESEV
Experimental: as §3, §4

[6] = biological target: T4, NMDAR2D expressing HEK cell membranes (Homo sapiens, UniProt O15399); test: NMDAR agonist assay, [3H]MK-801 binding, NMDAR2D; assay type: biochemical; settings: 50 μM glutamate
T4 construct: expressed in transfected cells; host or cells: HEK cells (membrane extract)
T4 sequence (O15399 28-1336, other chains not shown): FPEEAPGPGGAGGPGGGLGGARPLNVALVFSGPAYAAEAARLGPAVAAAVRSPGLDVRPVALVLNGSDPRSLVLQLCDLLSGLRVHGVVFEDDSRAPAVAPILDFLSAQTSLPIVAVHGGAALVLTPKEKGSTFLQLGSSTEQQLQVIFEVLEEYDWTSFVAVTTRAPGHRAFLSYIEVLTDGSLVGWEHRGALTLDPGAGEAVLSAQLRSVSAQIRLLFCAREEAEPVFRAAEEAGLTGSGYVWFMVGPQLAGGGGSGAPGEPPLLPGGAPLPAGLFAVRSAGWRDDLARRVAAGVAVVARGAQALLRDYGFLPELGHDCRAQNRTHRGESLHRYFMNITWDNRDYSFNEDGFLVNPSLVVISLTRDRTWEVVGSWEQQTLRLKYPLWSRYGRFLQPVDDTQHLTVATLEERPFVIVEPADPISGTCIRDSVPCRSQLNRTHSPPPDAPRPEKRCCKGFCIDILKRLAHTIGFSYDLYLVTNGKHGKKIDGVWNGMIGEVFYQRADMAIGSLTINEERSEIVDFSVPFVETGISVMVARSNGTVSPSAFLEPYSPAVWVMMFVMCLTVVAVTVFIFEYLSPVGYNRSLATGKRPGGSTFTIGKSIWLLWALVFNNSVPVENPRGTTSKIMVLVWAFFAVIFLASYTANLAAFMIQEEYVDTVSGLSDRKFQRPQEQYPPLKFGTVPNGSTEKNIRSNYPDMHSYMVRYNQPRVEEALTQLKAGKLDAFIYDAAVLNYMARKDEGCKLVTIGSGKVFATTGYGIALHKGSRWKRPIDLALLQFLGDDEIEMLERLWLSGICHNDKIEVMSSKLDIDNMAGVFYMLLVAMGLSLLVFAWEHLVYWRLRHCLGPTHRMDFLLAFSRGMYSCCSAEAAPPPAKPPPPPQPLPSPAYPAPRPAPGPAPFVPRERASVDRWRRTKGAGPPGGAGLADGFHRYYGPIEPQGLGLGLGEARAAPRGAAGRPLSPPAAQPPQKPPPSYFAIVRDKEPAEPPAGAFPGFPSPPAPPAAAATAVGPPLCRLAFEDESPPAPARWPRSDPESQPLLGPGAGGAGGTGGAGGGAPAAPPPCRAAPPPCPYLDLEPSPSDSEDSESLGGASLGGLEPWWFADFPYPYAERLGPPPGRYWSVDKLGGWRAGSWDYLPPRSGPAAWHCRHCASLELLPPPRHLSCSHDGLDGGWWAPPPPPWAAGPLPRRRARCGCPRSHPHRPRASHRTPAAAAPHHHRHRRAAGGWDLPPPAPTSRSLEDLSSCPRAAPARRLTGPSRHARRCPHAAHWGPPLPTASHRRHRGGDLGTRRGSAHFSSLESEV
Experimental: as §3, §4

[7] = biological target: T5, NMDAR2D expressing HEK cell membranes (Homo sapiens, UniProt O15399+Q05586); test: NMDAR agonist assay, [3H]MK-801 binding, NMDAR2D; assay type: biochemical; settings: 50 μM glutamate; for EC50: [3H]MK-801 binding, read-out: NMDAR2D: log EC50 (converted)
T5 construct: expressed in transfected cells; host or cells: HEK cells (membrane extract)
T5 sequence (O15399 28-1336, other chains not shown): as above
Experimental: as §3, §4

[8] = test system: positive (hedonic) 50-kHz ultrasonic vocalizations (USVs); test: Positive Emotional Learning (PEL) test; assay type: in vivo; settings: rat, PO, one hour after administration
Experimental: Experiments were conducted as described in Burgdorf et al., “The effect of selective breeding for differential rates of 50-kHz ultrasonic vocalizations on emotional behavior in rats,” Devel. […] Rat 50-kHz ultrasonic vocalization (hedonic USVs) is a validated model for the study of positive affective state and is best elicited by rough-and-tumble play.
The PEL assay measures the acquisition of positive (hedonic) 50-kHz ultrasonic vocalizations (USVs) to a social stimulus, heterospecific rough and tumble play stimulation. Heterospecific rough-and-tumble play stimulation was administered by the experimenter's right hand. One hour after administration of test compound or vehicle negative control (0.5% sodium carboxymethyl cellulose in 0.9% sterile saline vehicle), animals received 3 min of heterospecific rough-and-tumble play that consisted of alternating 15 sec blocks of heterospecific play and 15 sec of no-stimulation. […] Frequency modulated 50-kHz USVs that occurred during each of the no-stimulation periods were quantified to measure PEL. Animals were not habituated to play stimulation before testing. Positive emotional learning was measured during the conditioned stimulus (CS) trials preceding the tickle unconditioned stimulus (UCS) trials. Animals received 15 second trials consisting of 6 CS and 6 UCS trials each (3 min total).

[9] = biological target: T6, NMDAR2B expressing HEK cell membranes (Homo sapiens, UniProt Q05586+Q13224); test: NMDAR agonist assay, [3H]MK-801 binding, NMDAR2B; assay type: biochemical; settings: 50 μM glutamate; [3H]MK-801 binding; read-out: NMDAR2B log EC50 (converted)
T6 construct: expressed in transfected cells; host or cells: HEK cells (membrane extract)
Experimental: as §3, §4

[10] = biological target: T7, NMDAR2C expressing HEK cell membranes (Homo sapiens, UniProt Q05586+Q14957); test: NMDAR agonist assay, [3H]MK-801 binding, NMDAR2C; assay type: biochemical; settings: 50 μM glutamate
T7 construct: expressed in transfected cells; host or cells: HEK cells (membrane extract)
T7 sequence (Q14957 20-1233, other chains not shown): as the sequence (Q14957 20-1233, other chains not shown) above
Experimental: as §3, §4

IV pharmacokinetics = assay type: in vivo; settings: Sprague Dawley rats, 2 mg/kg, normal saline
Experimental: Sprague Dawley rats were dosed intravenously using a normal saline formulation containing 2 mg/kg of the compounds identified in the below table. The table below summarizes the results of the IV pharmacokinetics.

[11] = Oral pharmacokinetics (plasma, brain, CSF); assay type: in vivo; settings: Sprague Dawley rats, per os, 10 mg/kg
Experimental: In another experiment, Sprague Dawley rats were dosed per os using a normal saline formulation containing 10 mg/kg of the compounds identified in the table below. Plasma, brain, and CSF samples were analyzed at various time points over a 24 hour period. The table below summarizes the results of the oral pharmacokinetics.

[12] = test system: Sciatic nerve chronic constriction nerve injury; test: Bennett nerve injury assay (mechanical analgesia, paw withdrawal threshold); assay type: in vivo, Sprague Dawley rats; settings: 150 mg/kg PO
Experimental: The Bennett model of mechanical analgesia is used to assess the analgesic effects of compounds as measured by paw withdrawal threshold. Bennett G J, Xie Y K, “A peripheral mononeuropathy in rat that produces disorders of pain sensation like those seen in man,” Pain 33:87-107, 1988. […] Vehicle animals receive the surgery and then receive vehicle rather than test compound. Animals were tested 1 hr, 24 h and 1 wk post-test compound or vehicle administration.
Male 2-3 month old Sprague Dawley rats were used. Harlan was the supplier for all studies. Rats were housed in Lucite cages with aspen wood chip bedding, maintained on a 12:12 light:dark cycle (lights on at 5 AM), and given ad libitum access to Purina lab chow (USA) and tap water throughout the study.
Rats were anesthetized using inhaled isoflurane (2.5%). Sciatic nerve chronic constriction nerve injury surgery was performed as previously described (Bennett and Xie, 1988). An incision (˜1.5 cm in length) was made with a scalpel blade dorsally through skin on the right hind limb, parallel and posterior to femur. Using a small pointed hemostat, the biceps femoris and gluteus superficialis muscles were separated. Using curved blunt forceps, the common sciatic nerve was isolated and exposed. For the mechanical analgesia studies, the whole sciatic nerve was ligated. Using hemostats/forceps and chromic gut (5-0), the nerve was loosely ligated with a square knot; 3 ligatures, 1 mm apart were placed on the nerve. […] Testing occurred approximately 2 weeks post-surgery.
During testing, rats were acclimated to the surface of a suspended wire mesh grid (1 cm×1 cm, with the wire being 0.3 cm in diameter) for 15-20 min Starting from the smallest, each Von Frey filament was pressed perpendicularly to the plantar surface of the affected (ipsilateral) hind paw until slightly bent and then held for 6 second. If an obvious hind paw withdrawal or a flinching behavior immediately after the withdrawal of the filament was not observed, the next larger filament was used in the same manner. In case of a response, a lower filament was used. This was repeated until six responses were collected.
For all studies, animals were baselined prior to study start to test for allodynia (defined as a paw withdrawal threshold under 5). A subset of animals was tested with gabapentin (150 mg/kg, PO) to ensure at least 50% analgesia. Once it was confirmed animals were ready for study initiation, animals were balanced across groups. All study investigators were blind to treatment conditions. Animals were dosed with 0.1, 1 or 10 mg/kg of test compound via oral gavage (PO), control sets of animals were dosed with gabapentin (150 mg/kg, PO) or vehicle (0.5% Na-CMC in 0.9% sterile saline, PO). Testing occurred 1 h post-dosing with animals retested 24 hrs and 1 week post-dosing. The percent analgesia calculations for each animal were made using the following equation: % analgesia=[(log(x)−y)/((log (z)−y)]*100, where x=the paw withdrawal threshold for the drug-treated animal in grams, y=the average of the log(x) values for the vehicle treated group, and z=the paw withdrawal threshold for naïve animals in grams (historical value of 15 used). The results for Compound AD, where the percentage of analgesia is measured at 1 hour, 24 hours, and 1 week after compound administration are as follows: for 0.1 mg/kg dose: 37.8% at 1 h, 29.7% at 24 h, and 63.1% at 1 wk; for 1 mg/kg dose: 48.8% at 1 h, 20.6% at 24 h, and 19.8% at 1 wk; and for 10 mg/kg dose: 70.3% at 1 h, 38.8% at 24 h, and 11.3% at 1 wk.

[13] = [3H]MK-801 binding, read-out: NMDAR2C: log EC50 (converted)
[14] = Sprague Dawley, rat, in vivo, iv
[15] = Sprague Dawley, rat, plasma, po

| SMILES | Microsomal (Human): percent of compound remaining after 60 minutes [1] | Microsomal (Rat): percent of compound remaining after 60 minutes [2] | Plasma (Human): percent of compound remaining after 60 minutes (Plasma stability (Human)) | Plasma (Rat): percent of compound remaining after 60 minutes (Plasma stability (Rat)) | EC50 [3] | NMDAR2A: % maximal [3H]MK-801 binding relative to 1 mM glycine [3] | EC50 [4] | NMDAR2B: % maximal [3H]MK-801 binding relative to 1 mM glycine [4] | NMDAR2C A: % maximal [3H]MK-801 binding relative to 1 mM glycine [5] | NMDAR2D: % maximal [3H]MK-801 binding relative to 1 mM glycine [6] | EC50 [7] | also measured |
| --- | --- | --- | --- | --- | --- | --- | --- | --- | --- | --- | --- | --- |
| O=C1NCC12CCC1(CNC1=O)N2Cc1ccccc1 (single isomer, unassigned) [AC-3, 5-benzyl-2,5,8-triazadispiro[3.1.36.24]undecane-1,7-dione] | 77% | 83% | 92% | 85% | < 1 nM | + (<100%=+) | < 1 nM | + (<100%=+) | + (<100%=+) | − (−=0) | > 100 nM | – |
| CC(C)(C)OC(=O)N1CC2(CNC2=O)CC12CNC2=O (centres unmarked) [AY-1] | – | – | – | – | > 100 nM | − (−=0) | < 1 nM | + (<100%=+) | + (<100%=+) | + (<100%=+) | – | EC50 [5, 13]: < 1 nM; EC50 ([6]; [3H]MK-801 binding, read-out: NMDAR2D: log EC50 (converted)): < 1 nM |
| C[C@@H](O)[C@H](NC(=O)C1CCC2(CNC2=O)N1Cc1ccccc1)C(N)=O (single isomer, unassigned) [AM] | 95% | 99% | 88% | 87% | < 1 nM | + (<100%=+) | – | + (<100%=+) | − (−=0) | – | < 1 nM | Max Effect (mean number of 50 kHz USVs per 15 seconds) ([8]; dose 0.1 mg/kg): * (*: 6-10.9); EC50 [9]: < 1 nM; EC50 [10, 13]: > 100 nM; Emax ([7]; relative to 1 mM glycine, read-out: NMDAR2D: % maximal [3H]MK-801 binding relative to 1 mM glycine): < 100%; Vss (IV pharmacokinetics): 1.21 L/kg; AUC(0-t) (IV pharmacokinetics; [14]): 1000 ng·h/mL; clearance (IV pharmacokinetics; [14]): 33.3 mL/min/kg; half-life (IV pharmacokinetics; [14]): 2.38 h; C0 (IV pharmacokinetics; Sprague Dawley, rat, in vivo, iv, read-out: C0): 3460 ng/mL; CSF Cmax ([11]; CSF): 0 ng/mL; Brain Cmax ([11]; brain): 0 ng/mL; AUC(0-t) [11, 15]: 97.6 ng·h/mL; bioavailability [11, 15]: 2%; Tmax ([11]; Sprague Dawley, rat, plasma, po, normal saline, read-out: Tmax): 0.33 h; Cmax ([11]; Sprague Dawley, rat, plasma, po, plasma, read-out: Cmax): 34.2 ng/mL |
| O=C1NCC12CCC1(CNC1=O)N2Cc1ccccc1 (single isomer, unassigned) [AC-1, 5-benzyl-2,5,8-triazadispiro[3.1.36.24]undecane-1,7-dione] | 95% | 100% | 100% | 100% | – | + (<100%=+) | < 1 nM | + (<100%=+) | – | + (<100%=+) | – | Max Effect (mean number of 50 kHz USVs per 15 seconds) ([8]; dose 0.001-1 mg/kg): * (*: 6-10.9); Emax ([10]; relative to 1 mM glycine, read-out: NMDAR2C A: % maximal [3H]MK-801 binding relative to 1 mM glycine): < 100% |
| NCC1(CC(=O)O)CCCCC1 [gabapentin, reference compound] | – | – | – | – | – | – | – | – | – | – | – | analgesia, control group of the study ([12]; 1 week post-administration): under 5%; percentage of analgesia, example (typical) control value ([12]; 1 wk): 0%; percentage of analgesia, example (typical) control value ([12]; 1 h): 72%; analgesia, control group of the study ([12]; 1 h post-administration): at least 50%; percentage of analgesia, example (typical) control value ([12]; 24 h): 16%; analgesia, control group of the study ([12]; 24 h post-administration): under 5% |
